Results: patent publication US6448240B1, “Synergistic fungicidal and/or bactericidal composition” (Aventis CropScience, S.A., priority 1997, dated 2002)

System: Plasmopara viticola (grapevine downy mildew)
Assay: In-vivo test of famoxadone and fosetyl-aluminium on grapevine downy mildew, preventative treatment 5 days before inoculation
Design: species or system Plasmopara viticola on Vitis vinifera cv. Chardonnay
Conditions: 5-day-preventative spray on grapevine cuttings; evaluated 7 days after inoculation; 3 replications
Experimental: Example 1: In-vivo test of the combination of famoxadone and fosetyl-aluminium on Plasmopara viticola (grapevine downy mildew) by preventative treatment 5 days before inoculation. Dispersible granules of 50% compound A (famoxadone) and dispersible granules of 80% compound B (fosetyl-aluminium) are used. Dilute suspensions are prepared from these compositions by diluting them with water, and the two liquids are mixed in such a way that different ratios of the two products famoxadone and fosetyl are obtained. The A/B ratios studied were selected between 1/10 and 1/1, that is to say equalling 0.1-0.2 and 1. Grapevine cuttings (Vitis vinifera), cv. Chardonnay are grown in pots. When these plants are 2 months old (8- to 10-leaf stage, height 10 to 15 cm), they are treated by being sprayed with the suspension above. […] These spores are suspended at 100,000 units per cm^3 of inoculum. Inoculation is performed by spraying the underside of the leaves with the inoculum. The inoculated plants are then incubated for seven days at 20-22° C. and a relative humidity of 90-100% under natural light. The test is evaluated 7 days after inoculation by comparing the plants with the control plants.

For `C[C@@]1(c2ccc(Oc3ccccc3)cc2)OC(=O)N(Nc2ccccc2)C1=O` (racemic) [famoxadone, 5-methyl-5-(4-phenoxyphenyl)-3-(phenylamino-2,4-oxazolidinedione)], the “ED70 (effective dose which has a 70% control effect on the disease)” value was 2 µg/mL and the “ED90 (effective dose which has a 90% control effect on the disease)” value was 5.5 µg/mL.

`CCO[PH](=O)O` [fosetyl - aluminium, fosetyl-aluminium] was tested, and the “ED70 (effective dose which has a 70% control effect on the disease)” value was greater than 2000 µg/mL and the “ED90 (effective dose which has a 90% control effect on the disease)” value was greater than 2000 µg/mL.
